Laboratory results as given in ChEMBL document CHEMBL3045943, “Novel N-aryl(alkaryl)-2-[(3-R-2-oxo-2H-[1,2,4]triazino[2,3-c]quinazoline-6-yl)thio]acetamides: synthesis, cytotoxicity, anticancer activity, COMPARE analysis and docking” (2013).

How the values were obtained:
Assay type in all cases: functional
U-251 = test: Cytotoxicity against Homo sapiens (human) U251 cells assessed as cell growth at 10 uM after 48 hr by SRB assay relative to control; settings: U-251, 48 h, read-out: Activity
SW-620 = test: Cytotoxicity against Homo sapiens (human) SW620 cells assessed as cell growth at 10 uM after 48 hr by SRB assay relative to control; settings: SW-620, 48 h, read-out: Activity
SF-539 = test: Cytotoxicity against Homo sapiens (human) SF539 cells assessed as cell growth at 10 uM after 48 hr by SRB assay relative to control; settings: SF-539, 48 h, read-out: Activity
A498 [1] = test: Cytotoxicity against Homo sapiens (human) A498 cells after 48 hr by SRB assay; settings: A498, 48 h
[2] = test system: Photobacterium leiognathi; test: Growth inhibition of Photobacterium leiognathi Sh1 assessed as bio-luminescence at 0.1 mg/ml after 10 min by acute action test relative to control; set-up: scale not given: the % may be the effect or the level left
HT-29 = test: Cytotoxicity against Homo sapiens (human) HT-29 cells assessed as cell growth at 10 uM after 48 hr by SRB assay relative to control; settings: HT-29, 48 h, read-out: Activity
[3] = test system: Photobacterium leiognathi; test: Growth inhibition of Photobacterium leiognathi Sh1 assessed as bio-luminescence at 0.25 mg/ml after 10 min by acute action test relative to control; set-up: scale not given: the % may be the effect or the level left
SK-MEL-5 [4] = test: Cytotoxicity against Homo sapiens (human) SK-MEL-5 cells after 48 hr by SRB assay; settings: SK-MEL-5, 48 h
UO-31 = test: Cytotoxicity against Homo sapiens (human) UO31 cells assessed as cell growth at 10 uM after 48 hr by SRB assay relative to control; settings: UO-31, 48 h, read-out: Activity
HCT-116 = test: Cytotoxicity against Homo sapiens (human) HCT116 cells assessed as cell growth at 10 uM after 48 hr by SRB assay relative to control; settings: HCT-116, 48 h, read-out: Activity
[5] = test system: Photobacterium leiognathi; test: Growth inhibition of Photobacterium leiognathi Sh1 assessed as bio-luminescence at 0.1 mg/ml after 16 to 18 hr by chronic action test relative to control; set-up: scale not given: the % may be the effect or the level left
HOP-62 = test: Cytotoxicity against Homo sapiens (human) HOP62 cells after 48 hr by SRB assay; settings: HOP-62, 48 h
SF-268 = test: Cytotoxicity against Homo sapiens (human) SF268 cells assessed as cell growth at 10 uM after 48 hr by SRB assay relative to control; settings: SF-268, 48 h, read-out: Activity
SK-MEL-5 [6] = test: Cytotoxicity against Homo sapiens (human) SK-MEL-5 cells assessed as cell growth at 10 uM after 48 hr by SRB assay relative to control; settings: SK-MEL-5, 48 h, read-out: Activity
COLO 205 = test: Cytotoxicity against Homo sapiens (human) COLO205 cells assessed as cell growth at 10 uM after 48 hr by SRB assay relative to control; settings: COLO 205, 48 h, read-out: Activity
[7] = test system: Photobacterium leiognathi; test: Growth inhibition of Photobacterium leiognathi Sh1 assessed as bio-luminescence at 0.025 mg/ml after 10 min by acute action test relative to control; set-up: scale not given: the % may be the effect or the level left
SNB-75 = test: Cytotoxicity against Homo sapiens (human) SNB75 cells assessed as cell growth at 10 uM after 48 hr by SRB assay relative to control; settings: SNB-75, 48 h, read-out: Activity
CAKI-1 = test: Cytotoxicity against Homo sapiens (human) Caki1 cells assessed as cell growth at 10 uM after 48 hr by SRB assay relative to control; settings: CAKI-1, 48 h, read-out: Activity
A498 [8] = test: Cytotoxicity against Homo sapiens (human) A498 cells assessed as cell growth at 10 uM after 48 hr by SRB assay relative to control; settings: A498, 48 h, read-out: Activity
KM12 = test: Cytotoxicity against Homo sapiens (human) KM12 cells assessed as cell growth at 10 uM after 48 hr by SRB assay relative to control; settings: KM12, 48 h, read-out: Activity
NCI-H460 [9] = test: Cytotoxicity against Homo sapiens (human) NCI-H460 cells assessed as cell growth at 10 uM after 48 hr by SRB assay relative to control; settings: NCI-H460, 48 h, read-out: Activity
[10] = test system: Photobacterium leiognathi; test: Growth inhibition of Photobacterium leiognathi Sh1 assessed as bio-luminescence at 0.25 mg/ml after 16 to 18 hr by chronic action test relative to control; set-up: scale not given: the % may be the effect or the level left
MDA-MB-231 = test: Cytotoxicity against Homo sapiens (human) MDA-MB-231 cells assessed as cell growth at 10 uM after 48 hr by SRB assay relative to control; settings: MDA-MB-231, 48 h, read-out: Activity
NCI-H460 [11] = test: Cytotoxicity against Homo sapiens (human) NCI-H460 cells after 48 hr by SRB assay; settings: NCI-H460, 48 h
ACHN = test: Cytotoxicity against Homo sapiens (human) ACHN cells assessed as cell growth at 10 uM after 48 hr by SRB assay relative to control; settings: read-out: Activity
BT-549 = test: Cytotoxicity against Homo sapiens (human) BT549 cells assessed as cell growth at 10 uM after 48 hr by SRB assay relative to control; settings: BT-549, 48 h, read-out: Activity
[12] = test system: Photobacterium leiognathi; test: Growth inhibition of Photobacterium leiognathi Sh1 assessed as bio-luminescence at 0.025 mg/ml after 16 to 18 hr by chronic action test relative to control; set-up: scale not given: the % may be the effect or the level left
NCI-H522 = test: Cytotoxicity against Homo sapiens (human) NCI-H522 cells after 48 hr by SRB assay; settings: NCI-H522, 48 h
[13] = read-out: pLC50 (the source's name) (converted)

Work on `O=C(CSc1nc2ccccc2c2nc(=O)c(-c3ccccc3)nn12)NCc1ccc(F)cc1` yielded a growth at 10 µM (U-251) of 19.9%, a growth at 10 µM (SW-620) of 45.7% and a growth at 10 µM (SF-539) of 30.8%. For the same molecule, the GI50 (A498 [1]) was 1.12 µM, the LC50 (A498 [1]) was over 100 µM and the TGI (A498 [1]; read-out: pTGI (converted)) was 34.7 µM. It also gave an Activity [2] of 78.8%, a growth at 10 µM (HT-29) of 30.9% and an Activity [3] of 91.7%. For the same molecule, the GI50 (SK-MEL-5 [4]) was 3.02 µM, the LC50 (SK-MEL-5 [4]) was over 100 µM and the TGI (SK-MEL-5 [4]; read-out: pTGI) was over 100 µM. For the same molecule, the growth at 10 µM (UO-31) was 12.7%, the growth at 10 µM (HCT-116) was 38.9% and the Activity [5] was 76.9%. The GI50 (HOP-62) was 1.74 µM, the LC50 (HOP-62) was over 100 µM and the TGI (HOP-62; read-out: pTGI (converted)) was 6.92 µM. For the same molecule, the growth at 10 µM (SF-268) was 51.2%, the growth at 10 µM (SK-MEL-5 [6]) was 17.9% and the growth at 10 µM (COLO 205) was 30.8%. It also gave an Activity [7] of 77.8%, a growth at 10 µM (SNB-75) of 44.3% and a growth at 10 µM (CAKI-1) of -5.36%. It also gave a growth at 10 µM (A498 [8]) of 24.8%, a growth at 10 µM (KM12) of 9.97% and a growth at 10 µM (NCI-H460 [9]) of -25.4%. The Activity [10] was 166.7%, the growth at 10 µM (MDA-MB-231) was 15.7% and the GI50 (NCI-H460 [11]) was 2.57 µM. It also gave a CC50 (NCI-H460 [11]; [13]) of over 100 µM, a TGI (NCI-H460 [11]; read-out: pTGI) of over 100 µM and a growth at 10 µM (ACHN) of 43.7%. For the same molecule, the growth at 10 µM (BT-549) was 45.9%, the Activity [12] was 90.9% and the GI50 (NCI-H522) was 2.51 µM. For the same molecule, the CC50 (NCI-H522; [13]) was over 100 µM and the TGI (NCI-H522; read-out: pTGI (converted)) was 31.6 µM.
